Source: paper PMC5458179, “Oxidative DNA double strand breaks and autophagy in the antitumor effect of sterically hindered platinum(II) complexes in NSCLCs” (Oncotarget, 2017)

Assays:
[1] = test system: A549 and NCI-H1299 cancer cells; assay: Colony formation assay; format: cell-based, human; conditions: A549 and NCI-H1299, 7 days
Protocol: Cells were trypsinized and plated at a density of 500 perplate. […] Cells were then fixed with 3% paraformaldehyde, stained with crystal violet and imaged with a light microscope. The experiment was performed in triplicate. The number of colonies, defined as containing > 50 cells, was counted.

[2] = test system: A549 and NCI-H1299 cancer cells; assay: H2O2 measurement (Amplex Red); format: cell-based, human; conditions: A549 and NCI-H1299, 10 μM, 2 h
Protocol: As excessive ROS generation is associated with cell-killing activity, we further examined whether complex 3 could also induce the formation of excessive ROS in A549 and NCI-H1299 cancer cells.
The production of H2O2 was determined with the Amplex® Red reagent (10-acetyl-3,7-dihydroxyphenoxazine; Molecular Probes). In the presence of horseradish peroxidase (HPR), the Amplex® Red reagent reacts in a 1:1 stoichiometry to produce the red-fluorescent oxidation product, resorufin. Consequently, resorufin generation allows the detection of the H2O2 released from biological compounds. […] Resorufin generation was measured over time using a fluorometer (Fluostar BMG Labtech) at 544 nm excitation and 590 nm emission.

caspase-3 = assay: Caspase-3 activation analysis; format: cell-based, human; conditions: A549 and NCI-H1299, 10 μM, 24 h
Protocol: For the quantification of activation of caspase-3 in cancer cells, 5 × 10^5 cancer cells were seeded in a 60 mm dish and allowed to adhere for 1 day. […] As a reference control, the cells were only incubated with fresh media at 37°C. Then, the cells were washed with PBS to eliminate the remaining drugs and harvested using trypsin-EDTA. All the groups of cells were collected into microtubes following incubation with […] media containing […] of FITC-DEVD-FMK (Caspase 3(active) FITC Staining Kit (ab65613)) for 1 h at 37°C under 5% CO2. Subsequently, centrifugation of the cells was performed to collect cell pellets and washed 2 times with washing buffer. Each group of cells was resuspended with […] of the washing buffer and transferred […] per well in a microtiter plate reader. The quantification of caspase-3 was evaluated as Relative Fluorescence Unit(RFU) using Fluorophotometer (Max Gemini EM, SoftMax® Pro 5, Molecular Devices Corp., Sunnyvale, CA) at an emission wavelength of 535 nm after excitation at 485 nm. The statistical significance was evaluated with one-way ANOVA test using Graph Pad Prism 4 software.

MCF-7 = assay: MTT cytotoxicity assay; format: cell-based, human; conditions: exposed for 48 h
Protocol: Human cancer cell lines HepG2, SGC-7901, HCT-116, A549, NCI-H1299 and MCF-7 as well as normal liver cell line L02 were purchased from the Cell Bank of Shanghai Institute of Cell Biology. Among them, MCF-7, HepG2 cells were cultured at 37 °C in 5% CO2 with DMEM supplemented with 10% fetal bovine serum (FBS) (Hyclone, Lifescience, USA) and 1% penicillin/streptomycin (Beyotime, Nantong, China), while HCT-116, SGC-7901, A549, NCI-H1299 and L02 cells were cultured at 37 °C in 5% CO2 with RPMI-1640 supplemented with 10% FBS and 1% penicillin/streptomycin. Cells were passed every 2 days and restarted from frozen stocks upon reaching pass number 20.
In vitro cytotoxicity of the platinum compounds against human hepatocellular carcinoma (HepG-2), gastric carcinoma (SGC-7901), non-small-cell lung cancer (A549), and colorectal cancer (HCT-116) cell lines were measured by the MTT assays. Briefly, the cells were seeded in 96-well cultured plates at a density of 5000 cells/well. After overnight incubation (16 h), the cells were treated with the platinum complexes. […] The cell viability was evaluated by measurement of the absorbance at 490 nm, using an Absorbance Reader (BioRad). […] The reading values were converted to the percentage of control (% cell survival). Cytotoxic effects were expressed as IC50 values.

A549 cells = assay: Autophagy by acridine orange flow cytometry (AVOs); format: cell-based, human
Protocol: The role of complex 3-induced autophagy in cell death was further analyzed (Figure 6). When A549 cancer cells were treated with complex 3 of 10 μM, the protein expression of LC3-II was increased (Figure 6A). […] Treatment with complex 3 for 24 h caused a 4.5-folds increase in cells undergoing autophagy (Figure 6C). […] Moreover, Bax and Bcl-2 expressions were measured by western blot analysis of whole cell lysates.
To investigate the role of ROS in complex 3-induced cell death, the level of intracellular H2O2 was measured. […] Exposure of A549 cells to NAC reduced levels of LC3-II from 2.3- to 1.5-folds (Figure 8B). […] In parallel, the complex 3-induced increase ratio of Bax/Bcl-2 was suppressed by NAC (Figure 8E).
Flow cytometry with acridine orange staining as described in a previous study was used to detect and quantify the AVOs, one of the characteristicsof autophagy. At the end of individual experiments, A549 cells were collected in phenol red-free RPMI 1640 medium. Green (FL-1) and red (FL-3) fluorescences of acridine orange were measured using a flow cytometer and CellQuest software (Becton Dickinson, San Jose, CA). The sum of the upper-left and upper-right quadrants of the cytogram was used to estimate the percentage of cells undergoing autophagy.

A549 cancer cells = assay: Intracellular GSH measurement; format: cell-based, human; conditions: A549, 10 μM, 4 h
Protocol: After 4 h, medium was removed and dishes were rinsed three times with cold PBS. The cells were harvested and cell numbers were counted. Then, intracellular GSH levels were measured using a GSH test kit (KeyGen KGT006). A549 and NCI-H1299 cancer cells without treatment were used as control groups.

cancer cells = assay: Analysis of SSB (alkaline elution assay); format: cell-based; conditions: 10 μM, 15, 30 and 60 min
Protocol: Thus, we further identified whether the increased ROS level serves as a cause of DDR. […] To investigate the extent of DNA damage induced by complex 3, we detected the numbers of normal SSB using an alkaline elution assay.
Then the cells were washed three times with PBSCMF (140 mM NaCl, 3 mM KCl, 8 mM Na2HPO4 and 1 mM KH2PO4). The numbers of SSBs were determined by an alkaline elution assay as previously described. The numbers of SSB in untreated cancer cells were subtracted in all cases.

CC(C)C[NH+]1[C@@H]2CCCC[C@H]2[NH+](CC(C)C)[Pt-2]12[O]C(=O)CC(=O)[O]2 (stereo partly drawn) [Complex 3]
colony formation [1]: significantly reduced colony formation
production of H2O2 [2]: significantly higher
caspase-3 activity (caspase-3): high degree of caspase-3 activity compared to oxaliplatin
IC50 (MCF-7): 32.5 ± 2.9 µM
percentage of autophagy (A549 cells; A549, 10 μM complex 18 h, without NAC): 42.5%
increase in cells undergoing autophagy (A549 cells; A549, 10 μM, 24 h): 4.5 folds
percentage of autophagy (A549 cells; A549, 5 mM NAC 2 h pretreatment then 10 μM complex 18 h): 11.8%
intracellular GSH levels (A549 cancer cells): did significantly reduce
numbers of SSBs (cancer cells): could effectively increase the numbers of SSBs
